Results published in patent US8557872B2, “Compounds, isomer thereof, or pharmaceutically acceptable salts thereof as vanilloid receptor antagonist; and pharmaceutical compositions containing the same” (Amorepacific Corporation, priority 2008, dated 2013).

Target: T1, vanilloid receptor (Rattus norvegicus, UniProt O35433)
T1 construct: DRG nerve cells from the primary culture of 2 days were equilibrated by washing 4 times; endogenous in cells; host or cells: primary culture of dorsal root ganglion neurons from neonatal SD rats
Test: 45Ca influx test (calcium uptake) in primary cultured DRG neurons, capsaicin 0.5 μM
Type: cell-based
Conditions: rat DRG neurons, capsaicin 0.5 μM, 45Ca; read-out: Antagonist Calcium Uptake Test (IC50)
Method: 1) Separation of Spinal Dorsal Root Ganglia (DRG) in Newborn Rats and Primary Culture Thereof
Neonatal (2-3 day old or younger than 2-3 day old) SD rats were put in ice for 5 minutes to anesthetize and disinfected with 70% ethanol. […] The DRG were incubated sequentially at 37° C. for 30 mins in 200 U/ml collagenase and 2.5 mg/ml trypsin, separately. The ganglia were washed twice with DME/F12 medium supplemented with 10% horse serum, triturated through a fire-polished Pasteur pipette, filtered through Nitex 80 membrane to obtain single cell suspension and the suspension was washed once more. This was subjected to centrifugation, then resuspended in cell culture medium at certain level of cell density. As the cell culture medium, DME/F12 medium supplemented with 10% horse serum was diluted with identical medium conditioned by C6 glioma cells 2 days on a confluent monolayer (1:1), and NGF (Nerve Growth Factor) was added to adjust 200 ng/ml as final concentration. After the cells were grown 2 days in medium where cytosine arabinoside (Ara-C, 100 μM) was added to kill dividing nonneuronal cells, medium was changed to one without Ara-C. The resuspended cells were plated at a density of 1500-2000 neurons/well onto Terasaki plates previously coated with 10 μg/ml poly-D-ornithine.
2) ^45Ca Influx Experiments
DRG nerve cells from the primary culture of 2 days were equilibrated by washing 4 times with HEPES (10 mM, pH 7.4)-buffered Ca^2+, Mg^2+-free HBSS (H-HBSS). The solution in each well was removed from the individual well. Medium containing the test compound plus capsaicin (final concentration 0.5 μM) and ^45Ca (final concentration 10 μCi/ml) in H-HBSS was added to each well and incubated at room temperature for 10 mins. Terasaki plates were washed five times with H-HBSS and dried at room temperature. To each well, 0.3% SDS (10 μl) was added to elute ^45Ca. After the addition of scintillation cocktail of into each well, the amount of ^45Ca influx into neuron was measured by counting radioactivity.

T1 sequence (O35433 whole entry): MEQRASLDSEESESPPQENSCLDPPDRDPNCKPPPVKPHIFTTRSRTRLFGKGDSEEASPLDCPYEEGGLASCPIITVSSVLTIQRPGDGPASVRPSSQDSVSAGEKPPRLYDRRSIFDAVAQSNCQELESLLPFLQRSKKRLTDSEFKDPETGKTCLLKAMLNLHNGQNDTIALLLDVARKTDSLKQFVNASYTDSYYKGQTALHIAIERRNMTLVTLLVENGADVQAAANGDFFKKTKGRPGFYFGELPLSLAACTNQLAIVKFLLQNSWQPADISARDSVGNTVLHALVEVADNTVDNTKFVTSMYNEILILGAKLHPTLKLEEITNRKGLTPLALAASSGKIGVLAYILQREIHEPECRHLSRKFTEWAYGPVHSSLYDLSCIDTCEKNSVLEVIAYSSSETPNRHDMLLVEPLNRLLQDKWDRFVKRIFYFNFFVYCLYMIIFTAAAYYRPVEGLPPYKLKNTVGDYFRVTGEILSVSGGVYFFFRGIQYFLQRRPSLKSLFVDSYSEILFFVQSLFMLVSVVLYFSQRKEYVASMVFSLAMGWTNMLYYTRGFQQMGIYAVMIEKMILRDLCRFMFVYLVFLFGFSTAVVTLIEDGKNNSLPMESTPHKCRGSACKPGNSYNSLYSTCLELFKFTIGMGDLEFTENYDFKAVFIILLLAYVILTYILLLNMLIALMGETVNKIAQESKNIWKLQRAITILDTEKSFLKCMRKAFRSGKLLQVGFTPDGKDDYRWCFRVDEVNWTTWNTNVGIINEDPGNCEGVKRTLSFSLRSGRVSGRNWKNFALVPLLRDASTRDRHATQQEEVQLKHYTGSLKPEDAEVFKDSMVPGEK

| SMILES | IC50 [nM] |
| --- | --- |
| CCCCNc1cc(F)ccc1/C=C/C(=O)N[C@H](C)c1cc(F)c(NS(C)(=O)=O)c(F)c1 [Example 45, (R)-3-(2-Butylamino-4-fluoro-phenyl)-N-[1-(3,5-difluoro-4-methanesulfonylamino-phenyl)-ethyl]-acrylamide] | 65 |
| CCCCNc1cc(F)ccc1/C=C/C(=O)NCc1cc(F)c(NS(C)(=O)=O)c(F)c1 [Example 46, 3-(2-Butylamino-4-fluoro-phenyl)-N-(3,5-difluoro-4-methanesulfonylamino-benzyl)-acrylamide] | 180 |
| CCCCOc1cc(F)ccc1/C=C/C(=O)N[C@H](C)c1cc(F)c(NS(C)(=O)=O)c(F)c1 [Example 33, (R)-3-(2-Butoxy-4-fluoro-phenyl)-N-[1-(3,5-difluoro-4-methanesulfonylamino-phenyl)-ethyl]-acrylamide] | 150 |
| C[C@@H](NC(=O)/C=C/c1ccc(C(F)(F)F)cc1N1CCCCC1)c1cc(F)c(NS(C)(=O)=O)c(F)c1 [Example 52] | 340 |
| CC(C)Oc1cc(C(F)(F)F)ccc1/C=C/C(=O)NCc1cc(F)c(NS(C)(=O)=O)c(F)c1 [Example 20, N-(3,5-Difluoro-4-methanesulfonylamino-benzyl)-3-(2-isopropoxy-4-trifluoromethyl-phenyl)-acrylamide] | 150 |
| CCCc1cc(C(F)(F)F)ccc1/C=C/C(=O)NCc1cc(C)c(NS(C)(=O)=O)c(F)c1 [Example 23, N-(3-Fluoro-4-methanesulfonylamino-5-methyl-benzyl)-3-(2-propyl-4-trifluoromethyl-phenyl)-acrylamide] | 270 |
| CCCc1cc(C(F)(F)F)ccc1/C=C(\C)C(=O)N[C@H](C)c1ccc(NS(C)(=O)=O)c(F)c1 [Example 49, (R)—N-[1-(3-Fluoro-4-methanesulfonylamino-phenyl)-ethyl]-2-methyl-3-(2-propyl-4-trifluoromethyl-phenyl)-acrylamide] | 1400 |
| CCC(C)Oc1cc(F)ccc1/C=C/C(=O)NCc1cc(F)c(NS(C)(=O)=O)c(F)c1 (stereo not shown) [Example 41, 3-(2-sec-Butoxy-4-fluoro-phenyl)-N-(3,5-difluoro-4-methanesulfonylamino-benzyl)-acrylamide] | 550 |
| CCCOc1cc(C(F)(F)F)ccc1/C=C/C(=O)NCc1cc(F)c(NS(C)(=O)=O)c(F)c1 [Example 4, N-(3,5-Difluoro-4-methanesulfonylamino-benzyl)-3-(2-propoxy-4-trifluoromethyl-phenyl)-acrylamide] | 380 |
| CCOc1cc(C(F)(F)F)ccc1/C=C/C(=O)NCc1cc(F)c(NS(C)(=O)=O)c(C(F)(F)F)c1 [Example 15, 3-(2-Ethoxy-4-trifluoromethyl-phenyl)-N-(3-fluoro-4-methanesulfonylamino-5-trifluoromethyl-benzyl)-acrylamide] | 2400 |
| CCCCOc1cc(C(F)(F)F)ccc1/C=C/C(=O)NCc1cc(F)c(NS(C)(=O)=O)c(F)c1 [Example 32, 3-(2-Butoxy-4-trifluoromethyl-phenyl)-N-(3,5-difluoro-4-methanesulfonylamino-benzyl)-acrylamide] | 2200 |
| CCCNc1cc(F)ccc1/C=C/C(=O)N[C@H](C)c1cc(F)c(NS(C)(=O)=O)c(F)c1 [Example 29, (R)—N-[1-(3,5-Difluoro-4-methanesulfonylamino-phenyl)ethyl]-3-(4-fluoro-2-propylaminophenyl)-acrylamide] | 160 |
| CCCOc1cc(F)ccc1/C=C/C(=O)NCc1cc(F)c(NS(C)(=O)=O)c(F)c1 [Example 28, N-(3,5-Difluoro-4-methanesulfonylamino-benzyl)-3-(4-fluoro-2-propoxy-phenyl)-acrylamide] | 1100 |
| CCOc1cc(C(F)(F)F)ccc1/C=C/C(=O)N[C@H](CC)c1cc(F)c(NS(C)(=O)=O)c(F)c1 (stereo in doubt) [Example 37, N-[1-(3,5-Difluoro-4-methanesulfonylamino-phenyl)-propyl]-3-(2-ethoxy-4-trifluoromethyl-phenyl)-acrylamide] | 1700 |
| CCCNc1cc(F)ccc1/C=C/C(=O)NCc1cc(F)c(NS(C)(=O)=O)c(F)c1 [Example 30] | 410 |
| CCCc1cc(F)ccc1/C=C/C(=O)N[C@H](C)c1cc(F)c(NS(C)(=O)=O)c(F)c1 [Example 53, (R)—N-[1-(3,5-Difluoro-4-methanesulfonylamino-phenyl)-ethyl]-3-(4-fluoro-2-propyl-phenyl)-acrylamide] | 170 |

| SMILES | IC50 [nM] |
| --- | --- |
| CCC(C)Oc1cc(F)ccc1/C=C/C(=O)N[C@H](C)c1cc(F)c(NS(C)(=O)=O)c(F)c1 (stereo partly drawn) [Example 40, (R)-3-(2-sec-Butoxy-4-fluoro-phenyl)-N-[1-(3,5-difluoro-4-methanesulfonylamino-phenyl)-ethyl]-acrylamide] | 100 |
| C[C@@H](NC(=O)/C=C/c1ccc(C(F)(F)F)cc1OCC1CCCCC1)c1cc(F)c(NS(C)(=O)=O)c(F)c1 [Example 50, (R)-3-(2-Cyclohexylmethoxy-4-trifluoromethyl-phenyl)-N-[1-(3,5-difluoro-4-methanesulfonylamino-phenyl)-ethyl]-acrylamide] | 210 |
| CCCCNc1cc(C(F)(F)F)ccc1/C=C/C(=O)N[C@H](C)c1cc(F)c(NS(C)(=O)=O)c(F)c1 [Example 3, (R)-3-(2-Butylamino-4-trifluoromethyl-phenyl)-N-[1-(3,5-difluoro-4-methanesulfonylamino-phenyl)-ethyl]-acrylamide] | 120 |
| CCNc1cc(F)ccc1/C=C/C(=O)NCc1cc(F)c(NS(C)(=O)=O)c(F)c1 [Example 43, N-(3,5-Difluoro-4-methanesulfonylaminobenzyl)-3-(4-fluoro-2-ethylaminophenyl)acrylamide] | 320 |
| CCCc1cc(C(F)(F)F)ccc1/C=C/C(=O)N[C@H](CC)c1cc(F)c(NS(C)(=O)=O)c(F)c1 [Example 25, (R)—N-[1-(3,5-Difluoro-4-methanesulfonylamino-phenyl)-propyl]-3-(2-propyl-4-trifluoromethyl-phenyl)-acrylamide] | 170 |
| CCNc1cc(C(F)(F)F)ccc1/C=C/C(=O)NCc1cc(C)c(NS(C)(=O)=O)c(F)c1 [Example 19, 3-(2-Ethylamino-4-trifluoromethyl-phenyl)-N-(3-fluoro-4-methanesulfonylamino-5-methyl-benzyl)-acrylamide] | 160 |
| CC(C)Cc1cc(C(F)(F)F)ccc1/C=C/C(=O)N[C@H](C)c1cc(F)c(NS(C)(=O)=O)c(F)c1 [Example 47, (R)—N-[1-(3,5-Difluoro-4-methanesulfonylamino-phenyl)-ethyl]-3-(2-isobutyl-4-trifluoromethyl-phenyl)-acrylamide] | 94 |
| CCc1cc(C(F)(F)F)cc(CC)c1/C=C/C(=O)N[C@H](C)c1cc(F)c(NS(C)(=O)=O)c(F)c1 [Example 17] | 140 |
| CCC(C)Oc1cc(C(F)(F)F)ccc1/C=C/C(=O)N[C@H](C)c1cc(F)c(NS(C)(=O)=O)c(F)c1 (stereo partly drawn) [Example 39, (R)-3-(2-sec-Butoxy-4-trifluoromethyl-phenyl)-N-[1-(3,5-difluoro-4-methanesulfonylamino-phenyl)-ethyl]-acrylamide] | 22 |
| CCCCOc1cc(F)ccc1/C=C/C(=O)NCc1cc(F)c(NS(C)(=O)=O)c(F)c1 [Example 34, 3-(2-Butoxy-4-fluoro-phenyl)-N-(3,5-difluoro-4-methanesulfonylamino-benzyl)-acrylamide] | 980 |
| CCCc1cc(C(F)(F)F)ccc1/C=C/C(=O)N[C@H](C)c1ccc(NS(C)(=O)=O)c(F)c1 [Example 44] | 91 |
| CCNc1cc(C(F)(F)F)ccc1/C=C/C(=O)N[C@H](C)c1cc(F)c(NS(C)(=O)=O)c(F)c1 [Example 10, (R)—N-[1-(3,5-Difluoro-4-methanesulfonylamino-phenyl)-ethyl]-3-(2-ethylamino-4-trifluoromethyl-phenyl)-acrylamide] | 50 |
| CCOc1cc(C(F)(F)F)ccc1/C=C/C(=O)NCc1cc(F)c(NS(C)(=O)=O)c(F)c1 [Example 8, N-(3,5-Difluoro-4-methanesulfonylamino-benzyl)-3-(2-ethoxy-4-trifluoromethyl-phenyl)-acrylamide] | 850 |
| CS(=O)(=O)Nc1c(F)cc(CNC(=O)/C=C/c2ccc(C(F)(F)F)cc2N2CCCCC2)cc1F [Example 51, N-(3,5-Difluoro-4-methanesulfonylamino-benzyl)-3-(2-piperidin-1-yl-4-trifluoromethyl-phenyl)-acrylamide] | 3300 |
| C#Cc1cc(CNC(=O)/C=C/c2ccc(C(F)(F)F)cc2OCCC)cc(F)c1NS(C)(=O)=O [Example 14, N-(3-Ethynyl-5-fluoro-4-methanesulfonylamino-benzyl)-3-(2-propoxy-4-trifluoromethyl-phenyl)-acrylamide] | 240 |
